From patent publication US5492909A, “Triazolopyridazine derivatives, their production and use” (Takeda Chemical Industries, Ltd., priority 1993, dated 1996)

System: PAF-induced bronchoconstriction
Experiment: Effect on bronchoconstriction induced by platelet activating factor (PAF) in guinea pigs (Konzett-Roessler method)
Type: in vivo, guinea pig (male Hartley)
Conditions: oral, 1 hour before PAF (1 μg/kg i.v.)
Protocol: [Effect on bronchoconstriction induced by platelet activating factor (PAF) in guinea pigs]
Male Hartley guinea pigs (body weights about 500 g) were used. The bronchoconstriction reaction in the guinea pig which has intravenously been administered with PAF (1 μg/kg) was measured by the Konzett-Roessler method.
The trachea of the guinea pig with its back fixed was incised under anesthesia condition with urethane (intravenous injection, 1.5 g/kg) and connected with an artificial respirator via a cannula. The branch of the tracheal cannula was connected with a transducer (7020 type, manufactured by Ugobasile). Air was sent to the trachea at the rate of 3 to 7 ml per stroke, 70 strokes/min. and at load pressure of 10 cm H2 O to lung, and overflowed air volume was recorded with Rectegraph (Recte-Hori-8s, Sanei Sokuki Co., Ltd., Japan) via transducer. After the guinea pig was treated with gallamine (intravenous injection, 1 mg/kg), 1 μg/kg of PAF dissolved in a physiological saline solution was administered to the guinea pig via jugular venous cannula and the bronchoconstriction reaction induced thereby was recorded for 15 minutes. The drug (3 mg/kg and 10 mg/kg respectively) suspended in a 5% gum arabic solution was administered orally 1 hour before the injection of PAF.

| SMILES | Inhibition (%) of PAF-induced bronchoconstriction (3 mg/kg) [%] | Inhibition (%) of PAF-induced bronchoconstriction (10 mg/kg) [%] |
| --- | --- | --- |
| CCC(CC)(COc1ccc2nncn2n1)CS(N)(=O)=O [Example 3, 6-(2,2-diethyl-3-sulfamoyl-1-propoxy)[1,2, 4]triazolo[4,3-b]pyridazine] | 51.1 | 61.2 |
| CCC(CC)(COc1cc(C)c2nncn2n1)CS(N)(=O)=O [Example 1, 6-(2,2-diethyl-3-sulfamoyl-1-propoxy)-8-methyl-[1,2,4]triazolo[4,3-b]pyridazine] | 85.8 | 100 |
| CC(C)(COc1ccc2nncn2n1)CS(N)(=O)=O [Example 5, 6-(2,2-dimethyl-3-sulfamoyl-1-propoxy)[1,2,4]triazolo[4,3-b]pyridazine] | 22.4 | 41.2 |
